Laboratory results as given in paper PMC9860728, “Identification of New N-methyl-piperazine Chalcones as Dual MAO-B/AChE Inhibitors” (Pharmaceuticals, 2023).

Columns and labels:
[1] = molecular target: AChE (Electrophorus electricus, UniProt O42275); test: AChE inhibition assay (Ellman method, ATCI); assay type: biochemical; conditions: for remaining activity at 10 µM / Residual Activities at 10 μM (%) AChE: 10 μM compound, mean ± SD; for remaining activity at 10 µM: read-out: Residual Activities at 10 μM (%) AChE; for SI (ChE): AChE selectivity over BChE, based on IC50 values
Description: (§1) For measuring cholinesterase (ChE) activity, the Ellman method was employed with a slight modification. The AChE and BchE with ~0.02 U/mL were reacted with 0.5 mM ATCI and BTCI, respectively, followed by addition of 0.5 mM DTNB. […] In the inhibition assay, the enzyme and the compound were preincubated in reaction buffer for 15 min, followed by adding substrates and DTNB.

[2] = molecular target: T1, MAO-B (Homo sapiens, UniProt P27338); test: MAO-B enzyme inhibition assay (benzylamine substrate); assay type: biochemical; conditions: for remaining activity at 10 µM: read-out: Residual Activities at 10 μM (%) MAO-B; for SI (MAO): MAO-B selectivity over MAO-A, based on IC50 values
T1 construct: purchased Sigma Aldrich
T1 sequence (P27338 1-520): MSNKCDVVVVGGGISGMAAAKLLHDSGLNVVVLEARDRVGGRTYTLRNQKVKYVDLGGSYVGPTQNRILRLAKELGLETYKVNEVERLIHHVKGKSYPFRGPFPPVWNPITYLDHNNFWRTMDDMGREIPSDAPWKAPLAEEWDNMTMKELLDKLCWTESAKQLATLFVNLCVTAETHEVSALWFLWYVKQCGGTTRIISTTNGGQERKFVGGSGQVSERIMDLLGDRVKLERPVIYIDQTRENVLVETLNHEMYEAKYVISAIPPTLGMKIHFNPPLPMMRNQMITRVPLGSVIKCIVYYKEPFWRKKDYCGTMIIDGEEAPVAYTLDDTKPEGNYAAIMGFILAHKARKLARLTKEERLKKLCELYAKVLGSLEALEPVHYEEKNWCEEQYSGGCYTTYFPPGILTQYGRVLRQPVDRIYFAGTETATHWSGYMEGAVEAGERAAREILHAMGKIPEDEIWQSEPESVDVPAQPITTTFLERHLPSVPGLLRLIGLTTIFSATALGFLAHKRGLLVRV
Description: (§2) MAO assays were performed as described previously, i.e., ~0.09 U/mL of MAO-A and MAO-B were reacted with 0.06 mM kynuramine and 0.3 mM benzylamine, respectively, in 50 mM sodium phosphate (pH 7.2). […] For inhibition assay, the compounds were dissolved in DMSO and added into the reaction mixture. The final concentration of DMSO in the reaction mixture was less than 1% to avoid solvent disturbance.

[3] = molecular target: BChE (Equus caballus, UniProt P81908); test: biochemical; conditions: read-out: Residual Activities at 10 μM (%) BChE
Description: as §1

[4] = molecular target: T2, MAO-A (Homo sapiens, UniProt P21397); test: MAO-A enzyme inhibition assay (kynuramine substrate); assay type: biochemical; conditions: mean ± SD; for remaining activity at 10 µM: read-out: Residual Activities at 10 μM (%) MAO-A
T2 construct: purchased Sigma Aldrich
T2 sequence (P21397 1-527): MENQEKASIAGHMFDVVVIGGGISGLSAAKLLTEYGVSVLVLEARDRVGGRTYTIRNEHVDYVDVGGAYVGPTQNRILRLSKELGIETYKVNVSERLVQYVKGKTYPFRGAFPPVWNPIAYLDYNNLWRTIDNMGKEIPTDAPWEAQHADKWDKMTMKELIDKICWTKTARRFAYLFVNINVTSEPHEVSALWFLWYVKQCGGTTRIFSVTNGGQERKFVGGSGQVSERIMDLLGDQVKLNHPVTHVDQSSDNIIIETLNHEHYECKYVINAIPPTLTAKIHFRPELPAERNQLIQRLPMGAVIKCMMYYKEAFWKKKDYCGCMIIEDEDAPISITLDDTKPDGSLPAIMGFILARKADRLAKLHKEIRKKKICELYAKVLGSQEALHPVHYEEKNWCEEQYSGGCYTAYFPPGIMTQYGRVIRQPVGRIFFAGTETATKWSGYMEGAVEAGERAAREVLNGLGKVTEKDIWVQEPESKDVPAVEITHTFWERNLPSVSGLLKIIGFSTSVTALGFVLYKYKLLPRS
Description: as §2

AChE, sequence (O42275 24-633): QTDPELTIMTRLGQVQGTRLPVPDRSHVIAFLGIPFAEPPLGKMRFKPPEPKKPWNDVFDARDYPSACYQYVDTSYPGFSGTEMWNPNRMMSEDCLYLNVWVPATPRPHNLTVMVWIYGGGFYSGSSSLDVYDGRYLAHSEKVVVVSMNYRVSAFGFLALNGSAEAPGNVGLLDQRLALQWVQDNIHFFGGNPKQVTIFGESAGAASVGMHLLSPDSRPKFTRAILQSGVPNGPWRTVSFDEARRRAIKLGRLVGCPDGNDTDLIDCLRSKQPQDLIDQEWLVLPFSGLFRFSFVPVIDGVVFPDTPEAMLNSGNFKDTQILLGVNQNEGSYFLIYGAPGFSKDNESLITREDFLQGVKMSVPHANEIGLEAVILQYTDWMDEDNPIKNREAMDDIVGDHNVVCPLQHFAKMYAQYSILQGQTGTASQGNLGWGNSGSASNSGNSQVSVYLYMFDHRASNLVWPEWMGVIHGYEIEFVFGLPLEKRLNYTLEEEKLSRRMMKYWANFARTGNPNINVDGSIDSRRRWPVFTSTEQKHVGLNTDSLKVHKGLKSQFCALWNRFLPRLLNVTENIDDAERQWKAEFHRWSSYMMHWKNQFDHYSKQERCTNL
BChE, sequence (P81908 whole entry): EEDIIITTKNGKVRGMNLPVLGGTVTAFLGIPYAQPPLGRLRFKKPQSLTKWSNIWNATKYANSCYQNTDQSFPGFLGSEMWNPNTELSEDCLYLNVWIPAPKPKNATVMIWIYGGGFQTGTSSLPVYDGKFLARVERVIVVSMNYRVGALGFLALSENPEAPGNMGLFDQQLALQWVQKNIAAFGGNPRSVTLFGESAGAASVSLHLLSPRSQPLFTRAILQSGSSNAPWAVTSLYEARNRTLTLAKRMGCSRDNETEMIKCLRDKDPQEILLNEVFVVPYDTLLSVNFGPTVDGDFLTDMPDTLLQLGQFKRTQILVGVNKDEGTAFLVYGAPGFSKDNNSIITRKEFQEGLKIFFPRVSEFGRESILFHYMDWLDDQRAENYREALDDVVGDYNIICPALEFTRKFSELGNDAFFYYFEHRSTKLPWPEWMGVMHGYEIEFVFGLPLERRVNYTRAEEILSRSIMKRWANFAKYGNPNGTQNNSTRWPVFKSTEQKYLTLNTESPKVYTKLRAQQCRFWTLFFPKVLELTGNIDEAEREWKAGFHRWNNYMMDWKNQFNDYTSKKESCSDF

SMILES | remaining activity at 10 µM [1] [%] | SI (ChE) [1] | remaining activity at 10 µM ([2]; 10 μM compound, mean ± SD) [%] | SI (MAO) [2] | IC50 ([2]; mean ± SD) [µM] | remaining activity at 10 µM [3] [%] | remaining activity at 10 µM ([4]; 10 μM compound) [%] | IC50 [4] [µM] | Residual Activities at 10 μM (%) MAO-A ([4]; 10 μM compound) [%] | Residual Activities at 10 μM (%) AChE [1] [%] | Residual Activities at 10 μM (%) MAO-B ([2]; 10 μM compound, mean ± SD) [%]
CN1CCN(c2ccc(C(=O)/C=C/c3cccc(C(F)(F)F)c3)cc2)CC1 [Compound 2a, (E)-1-(4-(4-methylpiperazin-1-yl)phenyl)-3-(3-(trifluoromethyl)phenyl)prop-2-en-1-one] | 34.9 ± 5.19 | 2.44 | 12.8 ± 0.79 | 15.50 | 2.58 ± 0.19 | 58.6 ± 6.8 | 118 ± 7.73 | > 40 |  |  | 
CN1CCN(c2ccc(C(=O)/C=C/c3ccc(C(F)(F)F)cc3)cc2)CC1 [Compound 2b, (E)-1-(4-(4-methylpiperazin-1-yl)phenyl)-3-(4-(trifluoromethyl)phenyl)prop-2-en-1-one] | 19 ± 0.55 | 5.92 | 21 ± 4.02 | 12.90 | 3.1 ± 0.04 | 58.5 ± 1.38 |  | > 40 | 88.19 ± 6.87 |  | 
CN1CCN(c2ccc(C(=O)/C=C/c3ccc(F)cc3)cc2)CC1 [Compound 2c, (E)-3-(4-fluorophenyl)-1-(4-(4-methylpiperazin-1-yl)phenyl)prop-2-en-1-one] | 49.4 ± 4.66 | 1.79 | 22.7 ± 1.61 | 13.42 | 2.98 ± 0.18 | 49.7 ± 3.7 | 103 ± 8.84 | > 40 |  |  | 
CN1CCN(c2ccc(C(=O)/C=C/c3ccc(C#N)cc3)cc2)CC1 [Compound 2d, (E)-4-(3-(4-(4-methylpiperazin-1-yl)phenyl)-3-oxoprop-1-en-1-yl)benzonitrile] | 24.3 ± 0.95 | 10.38 | 16.7 ± 4.71 | 18.18 | 2.2 ± 0.06 | 71.5 ± 5.25 | 72.3 ± 2.5 | > 40 |  |  | 
CC(C)c1ccc(/C=C/C(=O)c2ccc(N3CCN(C)CC3)cc2)cc1 [Compound 2e, (E)-3-(4-isopropylphenyl)-1-(4-(4-methylpiperazin-1-yl)phenyl)prop-2-en-1-one] |  | 3.83 | 44.1 ± 3.04 | 1.94 | 8.36 ± 0.39 | 49.3 ± 1.28 | 60.6 ± 3.98 | 16.2 ± 1.74 |  | 17.75 ± 1.85 | 
CN1CCN(c2ccc(C(=O)/C=C/c3ccc(N(C)C)cc3)cc2)CC1 [Compound 2f, (E)-3-(4-(dimethylamino)phenyl)-1-(4-(4-methylpiperazin-1-yl)phenyl)prop-2-en-1-one] |  | >13.20 | 21.3 ± 3.77 | 12.16 | 3.29 ± 0.08 | 76.5 ± 3.35 | 83.6 ± 4.22 | > 40 |  | 26.37 ± 1.85 | 
CSc1ccc(/C=C/C(=O)c2ccc(N3CCN(C)CC3)cc2)cc1 [Compound 2g, (E)-1-(4-(4-methylpiperazin-1-yl)phenyl)-3-(4-(methylthio)phenyl)prop-2-en-1-one] | 50.4 ± 4.43 | >3.22 | 40 ± 1.67 | 5.93 | 6.74 ± 0.03 | 74.7 ± 4.48 | 97.2 ± 1.99 | > 40 |  |  | 
CN1CCN(c2ccc(C(=O)/C=C/c3ccc(OC(F)F)cc3)cc2)CC1 [Compound 2h, (E)-3-(4-(difluoromethoxy)phenyl)-1-(4-(4-methylpiperazin-1-yl)phenyl)prop-2-en-1-one] | 38 ± 0.92 | >6.87 | 17.3 ± 3.77 | 6.51 | 6.14 ± 0.43 | 73.9 ± 3.35 | 55.2 ± 4.12 | > 40 |  |  | 
CN1CCN(c2ccc(C(=O)/C=C/c3cc(F)cc(C(F)(F)F)c3)cc2)CC1 [Compound 2i, (E)-3-(3-fluoro-5-(trifluoromethyl)phenyl)-1-(4-(4-methylpiperazin-1-yl)phenyl)prop-2-en-1-one] | 51.5 ± 4.92 | 1.82 | 20.4 ± 2.47 | 17.17 | 2.33 ± 0.14 | 63.7 ± 6.24 | 114 ± 6.06 | > 40 |  |  | 
CN1CCN(c2ccc(C(=O)/C=C/c3cc(C(F)(F)F)cc(C(F)(F)F)c3)cc2)CC1 [Compound 2j, (E/Z)-3-(3,5-bis(trifluoromethyl)phenyl)-1-(4-(4-methylpiperazin-1-yl)phenyl)prop-2-en-1-one] | 57.1 ± 5.39 | >2.60 | 67.8 ± 5.36 | 2.55 | 15.7 ± 1.17 | 86 ± 1.04 | 97.1 ± 4.04 | > 40 |  |  | 
CN1CCN(c2ccc(C(=O)/C=C/c3ccc(Cl)c(C(F)(F)F)c3)cc2)CC1 [Compound 2l, (E)-3-(4-chloro-3-(trifluoromethyl)phenyl)-1-(4-(4-methylpiperazin-1-yl)phenyl)prop-2-en-1-one] | 68.5 ± 1.32 | 1.85 |  | 28.37 | 1.41 ± 0.04 | 73 ± 1.75 | 85.9 ± 1.66 | > 40 |  |  | 0.00 ± 1.79
COc1cc(/C=C/C(=O)c2ccc(N3CCN(C)CC3)cc2)ccc1F [Compound 2m, (E)-3-(4-fluoro-3-methoxyphenyl)-1-(4-(4-methylpiperazin-1-yl)phenyl)prop-2-en-1-one] | 27.6 ± 1.9 | 4.18 | 39.9 ± 6.26 | 5.92 | 6.76 ± 0.82 | 66.8 ± 2.1 | 78.8 ± 1.66 | > 40 |  |  | 
CN1CCN(c2ccc(C(=O)/C=C/c3cc(C(F)(F)F)ccc3Cl)cc2)CC1 [Compound 2o, (E)-3-(2-chloro-5-(trifluoromethyl)phenyl)-1-(4-(4-methylpiperazin-1-yl)phenyl)prop-2-en-1-one] | 37.6 | 0.31 | 22.9 ± 2.26 | 12.50 | 3.2 ± 0.32 | 6.46 ± 3.05 | 92.5 ± 4.23 | > 40 |  |  | 
COc1ccc(/C=C/C(=O)c2ccc(N3CCN(C)CC3)cc2)c(C(F)(F)F)c1 [Compound 2p, (E)-3-(4-methoxy-2-(trifluoromethyl)phenyl)-1-(4-(4-methylpiperazin-1-yl)phenyl)prop-2-en-1-one] | 37.8 ± 7.64 | 1.06 | 15 ± 3.93 | 3.06 | 2.18 ± 0.01 | 28.9 ± 4.08 | 44.5 ± 3.31 | 6.67 ± 0.63 |  |  | 
CN1CCN(c2ccc(C(=O)/C=C/c3ccc(F)cc3F)cc2)CC1 [Compound 2q, (E)-3-(2,4-difluorophenyl)-1-(4-(4-methylpiperazin-1-yl)phenyl)prop-2-en-1-one] | 33.78 ± 0.27 | 1.71 | 13.1 ± 2.06 | 5.45 | 3.03 ± 0.13 | 55.3 ± 0.68 | 72.7 ± 3.31 | 16.5 ± 1.75 |  |  | 
